Legend:
[1] = test system: Klebsiella aerogenes; experiment: Antimicrobial activity against multidrug resistant Enterobacter aerogenes isolate 12 by broth dilution method; assay type: functional
[2] = test system: Klebsiella aerogenes; experiment: Antimicrobial activity against multidrug resistant Enterobacter aerogenes isolate 6 by broth dilution method; assay type: functional
[3] = test system: Klebsiella pneumoniae; experiment: Antimicrobial activity against multidrug resistant Klebsiella pneumoniae isolate 11 by broth dilution method; assay type: functional
[4] = test system: Klebsiella aerogenes; experiment: Antimicrobial activity against multidrug resistant Enterobacter aerogenes isolate 8 by broth dilution method; assay type: functional
[5] = test system: Klebsiella aerogenes; experiment: Antimicrobial activity against multidrug resistant Enterobacter aerogenes ATCC 15038 harboring pDrive plasmid by broth dilution method; assay type: functional
[6] = test system: Klebsiella pneumoniae; experiment: Antimicrobial activity against multidrug resistant Klebsiella pneumoniae isolate 10 by broth dilution method; assay type: functional
[7] = test system: Klebsiella aerogenes; experiment: Antimicrobial activity against multidrug resistant Enterobacter aerogenes isolate 15 by broth dilution method; assay type: functional
[8] = test system: Klebsiella aerogenes; experiment: Antimicrobial activity against multidrug resistant Enterobacter aerogenes isolate 16 by broth dilution method; assay type: functional
[9] = test system: Klebsiella aerogenes; experiment: Antimicrobial activity against multidrug resistant Enterobacter aerogenes isolate 21 by broth dilution method; assay type: functional
[10] = test system: Escherichia coli; experiment: microbe, parasite or virus in culture; settings: DH5[alpha]
Description: Antimicrobial activity against multidrug resistant Escherichia coli DH5[alpha] harboring pDrive plasmid expressing ampC gene by broth dilution method

[11] = test system: Klebsiella aerogenes; experiment: Antimicrobial activity against multidrug resistant Enterobacter aerogenes isolate 1 by broth dilution method; assay type: functional
[12] = test system: Klebsiella aerogenes; experiment: Antimicrobial activity against multidrug resistant Enterobacter aerogenes isolate 14 by broth dilution method; assay type: functional
[13] = test system: Klebsiella pneumoniae; experiment: Antimicrobial activity against multidrug resistant Klebsiella pneumoniae isolate 7 by broth dilution method; assay type: functional
[14] = test system: Klebsiella pneumoniae; experiment: Antimicrobial activity against multidrug resistant Klebsiella pneumoniae isolate 2 by broth dilution method; assay type: functional
[15] = test system: Klebsiella aerogenes; experiment: Antimicrobial activity against multidrug resistant Enterobacter aerogenes isolate 26 by broth dilution method; assay type: functional
[16] = test system: Klebsiella aerogenes; experiment: Antimicrobial activity against multidrug resistant Enterobacter aerogenes isolate 20 by broth dilution method; assay type: functional
[17] = test system: Klebsiella pneumoniae; experiment: Antimicrobial activity against multidrug resistant Klebsiella pneumoniae isolate 3 by broth dilution method; assay type: functional
[18] = test system: Escherichia coli; experiment: microbe, parasite or virus in culture; settings: DH5[alpha]; remark: listed apart in the source
Description: Antimicrobial activity against multidrug resistant Escherichia coli DH5[alpha] harboring pDrive plasmid by broth dilution method

[19] = test system: Klebsiella aerogenes; experiment: Antimicrobial activity against multidrug resistant Enterobacter aerogenes isolate 11 by broth dilution method; assay type: functional
[20] = test system: Klebsiella pneumoniae; experiment: Antimicrobial activity against multidrug resistant Klebsiella pneumoniae isolate 12 by broth dilution method; assay type: functional
[21] = test system: Klebsiella aerogenes; experiment: Antimicrobial activity against multidrug resistant Enterobacter aerogenes ATCC 15038 harboring pACM204 plasmid by broth dilution method; assay type: functional
[22] = test system: Klebsiella aerogenes; experiment: Antimicrobial activity against multidrug resistant Enterobacter aerogenes isolate 27 by broth dilution method; assay type: functional
[23] = test system: Klebsiella aerogenes; experiment: Antimicrobial activity against multidrug resistant Enterobacter aerogenes isolate 23 by broth dilution method; assay type: functional
[24] = test system: Escherichia coli; experiment: Antimicrobial activity against multidrug resistant Escherichia coli ATCC 35218 by broth dilution method; assay type: functional
[25] = test system: Klebsiella aerogenes; experiment: Antimicrobial activity against multidrug resistant Enterobacter aerogenes isolate 4 by broth dilution method; assay type: functional
[26] = test system: Klebsiella pneumoniae; experiment: Antimicrobial activity against multidrug resistant Klebsiella pneumoniae isolate 14 by broth dilution method; assay type: functional
[27] = test system: Klebsiella aerogenes; experiment: Antimicrobial activity against multidrug resistant Enterobacter aerogenes isolate 25 by broth dilution method; assay type: functional
[28] = test system: Escherichia coli; experiment: microbe, parasite or virus in culture; settings: ATCC 35218
Description: Antimicrobial activity against multidrug resistant Escherichia coli ATCC 35218 harboring pDrive plasmid by broth dilution method

[29] = test system: Klebsiella aerogenes; experiment: Antimicrobial activity against multidrug resistant Enterobacter aerogenes isolate 2 by broth dilution method; assay type: functional
[30] = test system: Klebsiella aerogenes; experiment: Antimicrobial activity against multidrug resistant Enterobacter aerogenes isolate 22 by broth dilution method; assay type: functional
[31] = test system: Klebsiella aerogenes; experiment: Antimicrobial activity against multidrug resistant Enterobacter aerogenes isolate 17 by broth dilution method; assay type: functional
[32] = test system: Klebsiella pneumoniae; experiment: Antimicrobial activity against multidrug resistant Klebsiella pneumoniae isolate 5 by broth dilution method; assay type: functional
[33] = test system: Klebsiella aerogenes; experiment: Antimicrobial activity against multidrug resistant Enterobacter aerogenes isolate 7 by broth dilution method; assay type: functional
[34] = test system: Klebsiella aerogenes; experiment: Antimicrobial activity against multidrug resistant Enterobacter aerogenes isolate 18 by broth dilution method; assay type: functional
[35] = test system: Klebsiella pneumoniae; experiment: Antimicrobial activity against multidrug resistant Klebsiella pneumoniae isolate 8 by broth dilution method; assay type: functional
[36] = test system: Klebsiella aerogenes; experiment: Antimicrobial activity against multidrug resistant Enterobacter aerogenes isolate 9 by broth dilution method; assay type: functional
[37] = test system: Klebsiella pneumoniae; experiment: Antimicrobial activity against multidrug resistant Klebsiella pneumoniae isolate 9 by broth dilution method; assay type: functional
[38] = test system: Klebsiella pneumoniae; experiment: Antimicrobial activity against multidrug resistant Klebsiella pneumoniae isolate 16 by broth dilution method; assay type: functional
[39] = test system: Klebsiella aerogenes; experiment: Antimicrobial activity against multidrug resistant Enterobacter aerogenes isolate 24 by broth dilution method; assay type: functional
[40] = test system: Klebsiella pneumoniae; experiment: Antimicrobial activity against multidrug resistant Klebsiella pneumoniae isolate 15 by broth dilution method; assay type: functional
[41] = test system: Klebsiella pneumoniae; experiment: Antimicrobial activity against multidrug resistant Klebsiella pneumoniae ATCC 11296 by broth dilution method; assay type: functional
[42] = test system: Klebsiella aerogenes; experiment: Antimicrobial activity against multidrug resistant Enterobacter aerogenes isolate 10 by broth dilution method; assay type: functional
[43] = test system: Klebsiella pneumoniae; experiment: Antimicrobial activity against multidrug resistant Klebsiella pneumoniae isolate 1 by broth dilution method; assay type: functional
[44] = test system: Klebsiella aerogenes; experiment: Antimicrobial activity against multidrug resistant Enterobacter aerogenes isolate 19 by broth dilution method; assay type: functional
[45] = test system: Klebsiella pneumoniae; experiment: Antimicrobial activity against multidrug resistant Klebsiella pneumoniae isolate 13 by broth dilution method; assay type: functional
[46] = test system: Klebsiella aerogenes; experiment: Antimicrobial activity against multidrug resistant Enterobacter aerogenes ATCC 15038 harboring pDrive plasmid expressing ampC gene by broth dilution method; assay type: functional
[47] = test system: Escherichia coli; experiment: microbe, parasite or virus in culture; settings: ATCC 35218; remark: listed apart in the source
Description: Antimicrobial activity against multidrug resistant Escherichia coli ATCC 35218 harboring pDrive plasmid expressing ampC gene by broth dilution method

[48] = test system: Escherichia coli; experiment: microbe, parasite or virus in culture; settings: DH5[alpha]; remark: listed apart in the source
Description: Antimicrobial activity against multidrug resistant Escherichia coli DH5[alpha] by broth dilution method

[49] = test system: Klebsiella aerogenes; experiment: Antimicrobial activity against multidrug resistant Enterobacter aerogenes isolate 5 by broth dilution method; assay type: functional
[50] = test system: Klebsiella pneumoniae; experiment: Antimicrobial activity against multidrug resistant Klebsiella pneumoniae isolate 4 by broth dilution method; assay type: functional
[51] = test system: Klebsiella aerogenes; experiment: Antimicrobial activity against multidrug resistant Enterobacter aerogenes isolate 13 by broth dilution method; assay type: functional
[52] = test system: Klebsiella aerogenes; experiment: Antimicrobial activity against multidrug resistant Enterobacter aerogenes isolate 3 by broth dilution method; assay type: functional
[53] = test system: Escherichia coli; experiment: microbe, parasite or virus in culture; settings: DH5[alpha]; remark: listed apart in the source
Description: Antimicrobial activity against multidrug resistant Escherichia coli DH5[alpha] harboring pACM204 plasmid by broth dilution method

[54] = test system: Klebsiella aerogenes; experiment: Antimicrobial activity against multidrug resistant Enterobacter aerogenes ATCC 15038 by broth dilution method; assay type: functional
[55] = test system: Klebsiella pneumoniae; experiment: Antimicrobial activity against multidrug resistant Klebsiella pneumoniae isolate 6 by broth dilution method; assay type: functional
[56] = test system: Klebsiella aerogenes; experiment: Inhibition of multidrug resistance efflux pump in Enterobacter aerogenes isolate 6 assessed as increase in intracellular [14C]chloramphenicol accumulation relative to untreated control; assay type: cell-based
[57] = test system: Klebsiella pneumoniae; experiment: Inhibition of multidrug resistance efflux pump in Klebsiella pneumoniae isolate 13 assessed as increase in intracellular [14C]chloramphenicol accumulation relative to untreated control
[58] = test system: Klebsiella aerogenes; experiment: Inhibition of multidrug resistance efflux pump in Enterobacter aerogenes isolate 17 assessed as increase in intracellular [14C]chloramphenicol accumulation relative to untreated control; assay type: cell-based
[59] = test system: Klebsiella aerogenes; experiment: Inhibition of multidrug resistance efflux pump in Enterobacter aerogenes isolate 13 assessed as increase in intracellular [14C]chloramphenicol accumulation relative to untreated control; assay type: cell-based
[60] = test system: Klebsiella pneumoniae; experiment: Inhibition of multidrug resistance efflux pump in Klebsiella pneumoniae isolate 14 assessed as increase in intracellular [14C]chloramphenicol accumulation relative to untreated control

C[C@@H](O)[C@H]1C(=O)N2C(C(=O)O)=C(SCCNC=N)C[C@H]12 [IMIPENEM ANHYDROUS]
0.125 µg/mL: MIC [24]
0.25 µg/mL: MIC [14] | MIC [18] | MIC [28] | MIC [43] | MIC [48] | MIC [54]
0.5 µg/mL: MIC [3] | MIC [5] | MIC [6] | MIC [7] | MIC [13] | MIC [21] | MIC [26] | MIC [32] | MIC [35] | MIC [37] | MIC [38] | MIC [41] | MIC [47] | MIC [53] | MIC [55]
1 µg/mL: MIC [1] | MIC [2] | MIC [4] | MIC [8] | MIC [11] | MIC [15] | MIC [16] | MIC [19] | MIC [20] | MIC [22] | MIC [23] | MIC [25] | MIC [27] | MIC [29] | MIC [30] | MIC [31] | MIC [34] | MIC [36] | MIC [39] | MIC [40] | MIC [42] | MIC [45] | MIC [50] | MIC [52]
2 µg/mL: MIC [9] | MIC [10] | MIC [12] | MIC [17] | MIC [33] | MIC [44] | MIC [46] | MIC [49] | MIC [51]

CO[C@@]1(NC(=O)Cc2cccs2)C(=O)N2C(C(=O)O)=C(COC(N)=O)CS[C@@H]21 [CEFOXITIN]
16 µg/mL: MIC [13] | MIC [14] | MIC [32] | MIC [37] | MIC [43] | MIC [55]
32 µg/mL: MIC [3] | MIC [6] | MIC [17] | MIC [38] | MIC [45] | MIC [50]
128 µg/mL: MIC [54]
1020 µg/mL: MIC [4] | MIC [15]
512 µg/mL: MIC [19]
256 µg/mL: MIC [23]
64 µg/mL: MIC [20] | MIC [26] | MIC [40]
> 1020 µg/mL: MIC [1] | MIC [2] | MIC [7] | MIC [8] | MIC [9] | MIC [11] | MIC [12] | MIC [16] | MIC [22] | MIC [25] | MIC [27] | MIC [29] | MIC [30] | MIC [31] | MIC [33] | MIC [34] | MIC [36] | MIC [39] | MIC [42] | MIC [44] | MIC [49] | MIC [51] | MIC [52]
8 µg/mL: MIC [35] | MIC [41]

N#CC(C#N)=NNc1cccc(Cl)c1 [CARBONYL CYANIDE M-CHLOROPHENYLHYDRAZONE]
2: fold change (FC) [56] | fold change (FC) [57] | fold change (FC) [58] | fold change (FC) [59] | fold change (FC) [60]

— ChEMBL document CHEMBL1649134, “Occurrence of efflux mechanism and cephalosporinase variant in a population of Enterobacter aerogenes and Klebsiella pneumoniae isolates producing extended-spectrum beta-lactamases” (2009)
